Test results as given in US9822058B2 (CHDI FOUNDATION, INC., priority 2012, dated 2017).

Target: T1, KMO mouse enzyme (Mus musculus, UniProt Q91WN4)
T1 construct: KMO enzyme prepared at Evotec from mouse liver (4-6 weeks old) via mitochondria isolation; from tissue; host or cells: mouse liver (4-6 weeks old), isolated mitochondria, prepared at Evotec
Assay: KMO mouse enzyme assay: L-Kynurenine hydroxylation to 3-Hydroxy-Kynurenine by LC/MS (protocols substantially similar to Example 33)
Type: biochemical
Conditions: compound at 30 µM; KMO enzyme from mouse liver mitochondria; 100 μM L-Kynurenine; 40 min at RT
Procedure: A method of monitoring L-Kynurenine (KYN) hydroxylation to form 3-Hydroxy-Kynurenine (3OH-KYN) by LC/MS is described. Product is quantified by multiple reaction monitoring (MRM method). […]
Using the assay protocols substantially similar to those of Example 33, the following compounds were tested.

T1 sequence (Q91WN4 whole entry): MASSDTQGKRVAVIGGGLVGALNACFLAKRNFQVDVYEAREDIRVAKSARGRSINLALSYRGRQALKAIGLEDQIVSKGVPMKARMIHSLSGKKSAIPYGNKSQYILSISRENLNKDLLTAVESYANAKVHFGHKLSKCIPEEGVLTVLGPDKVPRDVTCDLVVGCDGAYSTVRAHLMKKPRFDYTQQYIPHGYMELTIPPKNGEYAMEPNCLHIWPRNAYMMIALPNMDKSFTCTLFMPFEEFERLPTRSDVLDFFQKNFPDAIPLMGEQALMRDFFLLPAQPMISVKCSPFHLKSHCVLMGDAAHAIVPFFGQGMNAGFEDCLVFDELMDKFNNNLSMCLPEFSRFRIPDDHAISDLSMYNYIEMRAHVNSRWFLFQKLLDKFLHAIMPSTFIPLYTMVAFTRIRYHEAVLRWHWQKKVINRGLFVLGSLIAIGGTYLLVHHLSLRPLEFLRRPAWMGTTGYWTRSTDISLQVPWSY

inhibition at 30 µM: 102%
SMILES: CC(C)(C)C(=O)OCOC(=O)[C@H]1C[C@@H]1C(=O)c1ccc(Cl)c(Cl)c1 [{[(1S,2S)-2-[(3,4-dichlorophenyl)carbonyl]cyclopropyl]carbonyloxy}methyl 2,2-dimethylpropanoate]
